Test results reported in patent US12018016B2, “Aryl sulfonyl (hydroxy) piperidines as CCR6 inhibitors” (CHEMOCENTRYX, INC., priority 2021, dated 2024).

Target: T1, human CCR6 (Homo sapiens, UniProt P51684)
T1 construct: expressed in transfected cells; host or cells: Ba/F3 cells (mouse pro-B line)
T1 sequence (P51684 1-374): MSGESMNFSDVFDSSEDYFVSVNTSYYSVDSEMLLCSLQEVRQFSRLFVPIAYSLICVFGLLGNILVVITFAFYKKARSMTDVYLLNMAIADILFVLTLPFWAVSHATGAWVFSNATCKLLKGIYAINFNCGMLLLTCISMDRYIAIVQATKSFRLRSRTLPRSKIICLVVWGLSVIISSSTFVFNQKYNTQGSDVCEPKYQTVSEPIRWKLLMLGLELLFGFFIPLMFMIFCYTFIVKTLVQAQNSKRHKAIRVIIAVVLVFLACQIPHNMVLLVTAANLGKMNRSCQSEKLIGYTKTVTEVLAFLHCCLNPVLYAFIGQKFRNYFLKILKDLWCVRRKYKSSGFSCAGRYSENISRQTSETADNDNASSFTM
Test: Migration assay (chemotaxis, ChemoTX)
Assay type: cell-based
Details: hCCR6-transfected Ba/F3 cells in human serum, migration to recombinant human CCL20 10 nM, 37° C. 45 minutes; read-out: Potency (IC50 value in the migration assay)
Source text: A chemotaxis assay can be used to determine the efficacy of potential receptor antagonists at blocking the migration mediated through chemokine receptors, such as CCR6. This assay is routinely performed using the ChemoTX® microchamber system with a 5-μm pore-sized polycarbonate membrane. Chemokine receptor-expressing cells are required for such an assay. In this case, Ba/F3 cells (Palacios et al., Nature, 309:126, 1984) transfected with the gene for human CCR6 under control of the CMV promotor were used. To begin such an assay, hCCR6-transfected Ba/F3 cells are first grown for 24 hr in medium supplemented with sodium butyrate, which increases CCR6 transcription via the CMV promotor. The prepared Ba/F3 cells, are collected by centrifugation at 400×g at room temperature, then suspended at 4 million/ml in human serum. The compound being tested is serially diluted from a maximum final concentration of 1 μM (or an equivalent volume of its solvent (DMSO)) and is then added to the cell/serum mixture. Separately, recombinant human CCL20 (MIP-3α/LARC) at its EC50 concentration (10 nM) is placed in the lower wells of the ChemoTX® plate. The 5-μm (pore size) polycarbonate membrane is placed onto the plate, and 20 μL of the cell/compound mixture is transferred onto each well of the membrane. The plates are incubated at 37° C. for 45 minutes, after which the polycarbonate membranes are removed and 5 μl of the DNA-intercalating dye CyQUANT (Invitrogen, Carlsbad, CA) is added to the lower wells. The amount of fluorescence, corresponding to the number of migrated cells, is measured using a Spectrafluor Plus plate reader (TECAN, San Jose, CA).

Row | Structure (SMILES) | IC50 [nM]
1 | Cc1cc(-c2ccc(S(=O)(=O)N3CC[C@@H](Nc4ccc(C(F)(F)F)cn4)[C@@H](O)C3)cc2)cc2c1CN(C(=O)N(C)C)C2 [Compound 80, 6-(4-(((3S,4R)-3-hydroxy-4-((5-(trifluoromethyl)pyridin-2-yl)amino)piperidin-1-yl)sulfonyl)phenyl)-N,N,4-trimethylisoindoline-2-carboxamide] | < 1
2 | O=C1Cc2ccc(-c3ccc(S(=O)(=O)N4CC[C@@H](Nc5ccc(C(F)(F)F)cn5)[C@@H](O)C4)cc3)cc2CN1 [Example 8, 7-(4-(((3S,4R)-3-hydroxy-4-((5-(trifluoromethyl)pyridin-2-yl)amino)piperidin-1-yl)sulfonyl)phenyl)-1,4-dihydroisoquinolin-3(2H)-one] | < 1
3 | Cc1c(C(N)=O)cncc1-c1ccc(S(=O)(=O)N2CC[C@@H](Nc3ccc(C(F)(F)F)cn3)[C@@H](O)C2)cc1 [Compound 184] | < 1
4 | Cn1cc(-c2ccc(S(=O)(=O)N3CC[C@@H](Nc4ccc(C(F)(F)F)cn4)[C@@H](O)C3)cc2)nc1C(N)=O [Compound 72, 4-(4-(((3S,4R)-3-hydroxy-4-((5-(trifluoromethyl)pyridin-2-yl)amino)piperidin-1-yl)sulfonyl)phenyl)-1-methyl-1H-imidazole-2-carboxamide] | 1 to 10
5 | Cc1c[nH]c(-c2cc(-c3ccc(S(=O)(=O)N4CC[C@@H](Nc5ccc(C(F)(F)F)cn5)[C@@H](O)C4)cc3)ccn2)n1 [Compound 215] | 1 to 10
6 | Cc1nnc(-c2cc(-c3ccc(S(=O)(=O)N4CC[C@@H](Nc5ccc(C(F)(F)F)cn5)[C@@H](O)C4)cc3)c(C)cn2)o1 [Compound 213] | < 1
7 | Cc1c(-c2ccc(S(=O)(=O)N3CC[C@@H](Nc4ccc(C(F)(F)F)cn4)[C@@H](O)C3)cc2)cnc(N)c1C [Compound 148] | < 1
8 | COc1cc(-c2ccc(S(=O)(=O)N3CC[C@@H](Nc4ccc(C(F)(F)F)cn4)[C@@H](O)C3)cc2)cc2cn[nH]c12 [Example 21, (3S,4R)-1-((4-(7-methoxy-1H-indazol-5-yl)phenyl)sulfonyl)-4-((5-(trifluoromethyl)pyridin-2-yl)amino)piperidin-3-ol] | < 1
9 | CNC(=O)N1Cc2cc(-c3ccc(S(=O)(=O)N4CC[C@@H](Nc5ccc(C(F)(F)F)cn5)[C@@H](O)C4)cc3)cc(C)c2C1 [Compound 188] | < 1
10 | COC(=O)c1cc(-c2ccc(S(=O)(=O)N3CC[C@@H](Nc4ccc(C(F)(F)F)cn4)[C@@H](O)C3)cc2)ccn1 [Example 39, Methyl 4-(4-(((3S,4R)-3-hydroxy-4-((5-(trifluoromethyl)pyridin-2-yl)amino)piperidin-1-yl)sulfonyl)phenyl)picolinate] | < 1
11 | CN(C)C(=O)N1Cc2ccc(-c3ccc(S(=O)(=O)N4CC[C@@H](Nc5ccc(C(F)(F)F)cn5)[C@@H](O)C4)cc3)cc2C1 [Compound 186] | < 1
12 | Cc1nc(-c2cc(-c3ccc(S(=O)(=O)N4CC[C@@H](Nc5ccc(C(F)(F)F)cn5)[C@@H](O)C4)cc3)ccn2)no1 [Compound 67, (3S,4R)-1-((4-(2-(5-methyl-1,2,4-oxadiazol-3-yl)pyridin-4-yl)phenyl)sulfonyl)-4-((5-(trifluoromethyl)pyridin-2-yl)amino)piperidin-3-ol] | < 1
13 | Cc1c(-c2ccc(S(=O)(=O)N3CC[C@@H](Nc4ccc(C(F)(F)F)cn4)[C@@H](O)C3)cc2)c(C)[n+]([O-])c2[nH]ccc12 [Example 62, 5-(4-(((3S,4R)-3-hydroxy-4-((5-(trifluoromethyl)pyridin-2-yl)amino)piperidin-1-yl)sulfonyl)phenyl)-4,6-dimethyl-1H-pyrrolo[2,3-b]pyridine 7-oxide] | < 1
14 | NC(=O)c1cc(-c2ccc(S(=O)(=O)N3CC[C@@H](Nc4ccc(C(F)(F)F)cn4)[C@@H](O)C3)cc2)n[nH]1 [Compound 73, 3-(4-(((3S,4R)-3-hydroxy-4-((5-(trifluoromethyl)pyridin-2-yl)amino)piperidin-1-yl)sulfonyl)phenyl)-1H-pyrazole-5-carboxamide] | 1 to 10
